One series relates to CYP3A. Put plainly: Drug-drug interaction with midazolam (cohort G).
For another series, the system named is Omicron. Set-up: method as in PMID 35081300. Conditions: cited from earlier work.
The conditions of series [1]: in vivo; cited from earlier work.
Where [2] appears, read: midazolam 2 mg, ensitrelvir 750/250 mg.

Molecules are shown by their SMILES.

Usually half-life stands for the time needed for the level to fall by half in the phase considered. The AUC(0-inf) is the area under the concentration-time curve extrapolated to infinity. The low end stands for low exposure, the high end for high exposure. The AUC(0-t) is exposure summed from dosing to a finite time, without extrapolation to infinity. Broadly, the Cmax is the maximum level reached in the sampled fluid or tissue. The MRT is a mean duration of stay, worked out from the concentration-time curve.

For `Cc1ncc2n1-c1ccc(Cl)cc1C(c1ccccc1F)=NC2` [Midazolam, midazolam], in the series on CYP3A (ensitrelvir 750/250 mg, day 6), the “increase of AUC0-last of midazolam coadministered with ensitrelvir vs midazolam alone” value came out at 7.23 fold and the “increase of Cmax of midazolam coadministered with ensitrelvir vs midazolam alone” value is 2.78 fold. Further, the half-life with CYP3A (human, in vivo) was 9.13 h. In the series with CYP3A (human, in vivo, 2 mg), this compound returned an AUC(0-inf) of 35.7 ng·h/mL, an exposure AUC(0-t) of 34.7 ng·h/mL, a Cmax of 16.2 ng/mL and an MRT of 4.11 h. In the series with CYP3A (human, in vivo, 2 mg), this compound had a half-life of 4.36 h and a k el of 4.42e-05 s⁻¹. In the series on CYP3A (setting [2]), the “AUC0-inf, GLS mean (90% CI) ratio (midazolam with ensitrelvir/midazolam alone)” value is on record as 8.8002 (6.7061/11.5484); the “AUC0-last, GLS mean (90% CI) ratio (midazolam with ensitrelvir/midazolam alone)” value is 7.2293 (5.5817/9.3632); the “Cmax, GLS mean (90% CI) ratio (midazolam with ensitrelvir/midazolam alone)” value is recorded as 2.7763 (2.3341/3.3022); the “MRT, GLS mean (90% CI) ratio (midazolam with ensitrelvir/midazolam alone)” value is recorded as 2.8734 (2.5380/3.2530). Besides, the “t1/2,z, GLS mean (90% CI) ratio (midazolam with ensitrelvir/midazolam alone)” value in the series on CYP3A (setting [2]) is 2.0954 (1.9490/2.2529).
On to `CC(C)C(=O)OC[C@H]1O[C@@H](n2ccc(NO)nc2=O)[C@H](O)[C@@H]1O` [molnupiravir], for which the “efficacy against Omicron” value in the series on Omicron is “efficacious”.
Consider `CC(C)(C)[C@H](NC(=O)C(F)(F)F)C(=O)N1C[C@H]2[C@@H]([C@H]1C(=O)N[C@H](C#N)C[C@@H]1CCNC1=O)C2(C)C` [nirmatrelvir], for which the elimination in humans result in series [1] was “rapid”.
On to `CCC(CC)COC(=O)[C@H](C)N[P@](=O)(OC[C@H]1O[C@@](C#N)(c2ccc3c(N)ncnn23)[C@H](O)[C@@H]1O)Oc1ccccc1` [remdesivir], for which, in the series on Omicron, the “efficacy against Omicron” value was “efficacious”.

Source of the values: PMC9578392, “Safety, Tolerability, and Pharmacokinetics of the Novel Antiviral Agent Ensitrelvir Fumaric Acid, a SARS-CoV-2 3CL Protease Inhibitor, in Healthy Adults” (Antimicrobial Agents and Chemotherapy, 2022).
